US20220241208A1, “PHARMACEUTICAL COMPOSITIONS FOR THE TREATMENT OF HBV” (priority 2019, published 2022)

Experiments:
HBV [1] = experiment: Study 211: open-label extension study of Compound 1 + Nrtl combination therapy; set-up: species or system human; conditions: in vivo
From the text: Compound 1 was investigated in an open-label, extension study (Study 211) to evaluate the safety and efficacy of combination therapy and Compound 1's effect on sustained viral response biomarkers. […] Study 211 utilized the four assays described in Studies 201 and 202.
Participants with chronic HBV who were currently not being treated received Compound 1 along with SOC NUC (entecavir [ETV]) tablets orally for 24 weeks. Eligible participants entered a separate extension study after Week 24 to continue open-label Compound 1 for up to an additional year.

[2] = SGF/FaSSIF two-stage gastric transfer non-sink dissolution test; assay type: physicochemical; conditions: dosed dry (SDD dry powder or API), 30 min SGF, then FaSSIF pH 6.8
Experimental: In-vitro drug dissolution performance for each SDD prepared in Example 1 and described in Table 1 (i.e., Formulations 1-4) was evaluated by a two-stage gastric transfer non-sink dissolution test, which stimulates pH and bile salt concentrations for both gastric and intestinal exposure. A drug product sample start in 0.1N HCl(aq) (simulated gastric fluid or SGF) for 30 minutes at which point an equal volume of concentrated fasted-state simulated intestinal fluid (FaSSIF) is added to the SGF, resulting in a final pH of 6.8 in FaSSIF (100 mM PBS, 2.24 mg/mL SIF, Biorelevant Inc.).
The dissolution performance of the SDDs of Formulations 1-4 and crystalline Compound 1 was tested. The dissolution test is used to measure the supersaturation of drug above the bulk crystalline Compound 1 solubility in biorelevant intestinal media (FaSSIF) after 30 minutes exposure to a low-pH environment (SGF). During the test, samples were transferred from SGF [theoretical Cmax=1000 μA/mL] to FaSSIF SGF [theoretical Cmax=500 μA/mL].
The dissolution performance of the jet-milled material and crystalline Compound 1 was tested in a non-sink dissolution test, to measure the supersaturation of the drug above the bulk crystalline Compound 1 solubility in biorelevant intestinal media (FaSSIF) after 30 minutes exposure to a low-pH environment (SGF). During the test, samples were transferred from SGF to FaSSIF SGF. […]

HBV [3] = experiment: Study 202: Compound 1+ETV vs placebo+ETV in treatment-naive HBeAg positive viremic chronic hepatitis B subjects; assay type: in vivo, human; conditions: Tx naïve HBeAg+ subjects
Experimental: In this study (also referred to as study 202), 25 treatment-naive HBeAg positive […] subjects are randomized 1:1 (Group 1: […] FIG. 1 depicts a flow chart of the study. […] Subjects (Group 2) with chronic HBV who are currently not being treated receive matching placebo along with SOC NUC (entecavir [ETV]) tablets orally for 24 weeks. Subjects receive SOC NUC (0.5 mg QD of ETV) orally as per approved package insert and matching QD placebo tablets orally. […] Subjects return to the clinic at weeks (wk) 2 and 4 and then monthly up to wk 24. Clinical labs, safety and PK are monitored, as well as HBV biomarkers including HBV DNA, HBV RNA, HBsAg and HBeAg. At weeks 12 and 24, longitudinal serum samples are assayed for detectable virus. Compound 1 is abbreviated as C1 in the tables and figures.

[4] = listed as Crystalline Compound 1

Question: Which “effect on pgRNA levels” value (HBV [1]) does the source give for `O=C(NCc1cnc(C(F)(F)F)s1)c1ccc2c(c1)NC(=O)c1ccccc1S2(=O)=O` [Compound 1, 11-oxo-N-((2-(trifluoromethyl)thiazol-5-yl)methyl)-10,11-dihydrodibenzo[b,f][1,4]thiazepine-8-carboxamide 5,5-dioxide] here?
Answer: Its value is “multi-log reduction in pgRNA levels”.

Question: Which “AUC35-210FaSSIF (area under the curve after transfer to FaSSIF from 35 to 210 minutes)” value (“AUC35-210FaSSIF” below) [2] does the source give for `O=C(NCc1cnc(C(F)(F)F)s1)c1ccc2c(c1)NC(=O)c1ccccc1S2(=O)=O` [Compound 1-Jet Mill, 11-oxo-N-((2-(trifluoromethyl)thiazol-5-yl)methyl)-10,11-dihydrodibenzo[b,f][1,4]thiazepine-8-carboxamide 5,5-dioxide] here?
Answer: Its value is 5400 min * μgA/mL.

Question: What about the “C210 (drug concentration at 180 minutes after transfer to FaSSIF)” value [2] of the same molecule?
Answer: Its value is 29.6 μgA/mL.

Question: What about the “Cmax FaSSIF (maximum drug concentration after transfer to FaSSIF)” value (“Cmax FaSSIF” for short) [2] of the same molecule?
Answer: Its value is 38.0 μgA/mL.

Question: For `C=C1[C@H](CO)[C@@H](O)C[C@@H]1n1cnc2c(=O)[nH]c(N)nc21` [ETV, entecavir], which “HBV DNA mean log10 decline” value (HBV [3]; Week 12) is on record?
Answer: Its value is 3.29 log10 IU/mL.

Question: What about the “HBV RNA mean log10 decline” value (HBV [3]; Week 12) of the same molecule?
Answer: Its value is 0.44 log10 copies/mL.

Question: What about the “HBV DNA mean log10 decline” value (HBV [3]; Week 24) of the same molecule?
Answer: The value was 3.99 log10 IU/mL.

Question: What about the “HBV RNA mean log10 decline” value (HBV [3]; Week 24) of the same molecule?
Answer: The value was 0.61 log10 copies/mL.

Question: Which “AUC35-210FaSSIF” value [2] does the source give for `O=C(NCc1cnc(C(F)(F)F)s1)c1ccc2c(c1)NC(=O)c1ccccc1S2(=O)=O` [Formulation 5, 11-oxo-N-((2-(trifluoromethyl)thiazol-5-yl)methyl)-10,11-dihydrodibenzo[b,f][1,4]thiazepine-8-carboxamide 5,5-dioxide] here?
Answer: Its value is 5300 min * μgA/mL.

Question: And the “C210 (drug concentration at 180 minutes after transfer to FaSSIF)” value [2]?
Answer: Its value is 27.6 μgA/mL.

Question: What about the “Cmax FaSSIF” value [2] of the same molecule?
Answer: The value was 33.4 μgA/mL.

Question: And the “AUC35-210FaSSIF” value [2, 4]?
Answer: The value was 5300 min * μgA/mL.

Question: What about the “Cmax FaSSIF” value [2, 4] of the same molecule?
Answer: The value was 33.4 μgA/mL.
